Experimental data published in patent US6344462B1, “Heterocyclic compounds as bradykinin antagonists” (Fujisawa Pharmaceutical Co., Ltd., priority 1995, dated 2002).
Structures can show the parent of a compound that is named as a salt.

Test system: not given
Test: not given
Details: not given

Compared with CNC(=O)c1ccc(C=CC(=O)NC/C=C\c2ccc(Cl)c(COc3cccc4ccc(C)nc34)c2Cl)cc1OC (as salt: hydrochloride) [50-(1) (hydrochloride), 8-[2,6-Dichloro-3-[(Z)-3-[3-methoxy-4-(methylcarbamoyl)cinnamoylamino]-1-propenyl]benzyloxy]-2-methylquinoline], COc1nc2c(OCc3c(Cl)ccc(-n4cccc4CNC(=O)/C=C/c4ccc(NC(C)=O)nc4)c3Cl)cccc2n1C [Example 21, 2-[(E)-3-(6-acetamidopyridin-3-yl)acryloylaminomethyl]-1-[2,4-dichloro-3-(2-methoxy-1-methyl-1H-benzimidazol-4-yloxymethyl)phenyl]pyrrole] is higher in melting point: 222 to 225 °C for the first, 233 to 240 °C for the second.

Work on Cc1ccc2cccc(OCc3c(Cl)ccc(C(=O)N4CCNCC4)c3Cl)c2n1.Cl.Cl yielded a melting point of 195 to 197 °C.

Biological target: T1, Bradykinin receptor (Cavia porcellus, UniProt O70526)
T1 construct: from tissue; host or cells: guinea pig ileum, crude membrane preparation
T1 sequence (O70526 1-372): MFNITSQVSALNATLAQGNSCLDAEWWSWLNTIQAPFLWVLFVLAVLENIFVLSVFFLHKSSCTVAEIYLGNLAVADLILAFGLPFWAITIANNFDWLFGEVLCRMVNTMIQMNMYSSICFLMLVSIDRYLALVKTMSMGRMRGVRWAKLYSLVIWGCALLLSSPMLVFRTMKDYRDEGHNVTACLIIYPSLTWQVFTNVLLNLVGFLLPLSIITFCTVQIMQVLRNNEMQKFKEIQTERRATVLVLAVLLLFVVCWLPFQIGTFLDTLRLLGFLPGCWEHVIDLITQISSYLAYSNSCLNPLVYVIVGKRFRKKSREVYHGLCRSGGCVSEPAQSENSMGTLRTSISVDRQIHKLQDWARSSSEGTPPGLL
Test: 3H-Bradykinin receptor binding (crude guinea pig ileum membrane)
Details: crude ileum membrane of male Hartly strain guinea pigs; 3H-Bradykinin 0.06 nM; room temperature, 60 minutes; read-out: Inhibition of 3H-Bradykinin binding IC50
Method: ^3H-Bradykinin receptor binding
(a) Crude ileum membrane preparation
Male Hartly strain guinea pigs were sacrificed by decapitation. The ileum was removed and homogenized in buffer (50 mM trimethylaminoethanesulfonic acid (TES), 1 mM 1,10-phenanthroline pH 6.8). The homogenate was centrifuged (1000×g, 20 minutes) to remove tissue clumps and the supernatant was centrifuges (100,000×g, 60 minutes) to yield a pellet. The pellet was resuspended in buffer (50 mM TES, 1 mM 1,10-phenanthroline, 140 mg/l bacitracin, 1 mM dithiothreiol, 0.1% bovine serum albumin pH 6.8) and homogenized with a glass-teflon homogenizer to yield suspension which was referred to as crude membrane suspension. The obtained membrane suspension was stored at −80° C. until use.
(b) ^3H-Bradykinin binding to the membrane
The frozen crude membrane suspension was thawed. In binding assays, ^3H-Bradykinin (0.06 nM) and the test compound were incubated with 50 μl of the membrane suspension at room temperature for 60 minutes in a final volume of 250 μl. Separation of receptor-bound from free ^3H-Bradykinin is achieved by immediate filtration under vacuum and washed three times with 5 ml of ice-cold buffer (50 mM Tris-HCl pH 7.5). Non-specific binding was defined as binding in the presence of 0.1 μM Bradykinin. The radioactivity retained on rinsed filters was determined by a liquid-scintillation counter.

Point of comparison: CCOC(=O)c1ccc(/C=C/C(=O)NCc2cccn2-c2ccc(Cl)c(COc3cccc4ccc(C)nc34)c2Cl)cn1 [16-(1), 1-[2,4-Dichloro-3-(2-methylquinolin-8-yloxymethyl)phenyl]-2-[(E)-3-(6-ethoxycarbonylpyridin-3-yl)acryloylaminomethyl]pyrrole], IC50 3.3 nM. Against it:
- CNC(=O)c1ccc(/C=C/C(=O)NCc2ccccc2-c2ccc(C)c(COc3cccc4ccc(C)nc34)c2C)cc1 [40-(6)] — within 1.5-fold, 2.3 nM
- CNC(=O)c1ccc(C=CC(=O)NCc2sccc2-c2ccc(C)c(COc3cccc4ccc(C)nc34)c2C)cc1 [45-(6) (hydrochloride), 3-[2,4-Dimethyl-3-(2-methylquinolin-8-yloxymethyl)-phenyl]-2-[4-(methylcarbamoyl)-cinnamoylaminomethyl]thiophene] — within 1.5-fold, 2.8 nM
- Cc1nc2c(OCc3c(Cl)ccc(-n4cccc4CNC(=O)/C=C/c4ccc(/C=C/c5ccncc5)nc4)c3Cl)cccn2c1Br [23-(3) (trihydrochloride), 1-(3-(3-bromo-2-methylimidazo[1,2-a]pyridin-8-yloxymethyl)-2,4-dichlorophenyl]-2-[(E)-3-[6-[(E)-2-(pyridin-4-yl)vinyl]pyridin-3-yl]acryloylaminomethyl]pyrrole] — within 1.5-fold, 4.3 nM
- Cc1ccc2cccc(OCc3c(Cl)ccc(-n4cccc4CNC(=O)/C=C/c4ccc(/C=C/c5ccncc5)nc4)c3Cl)c2n1 [15 (trihydrochloride), 1-[2,4-Dichloro-3-(2-methylquinolin-8-yloxymethyl)phenyl]-2-[(E)-3-[6-[(E)-2-(pyridin-4-yl)vinyl]pyridin-3-yl]acryloylaminomethyl]pyrrole] — within 1.5-fold, 2.6 nM
- CNC(=O)c1ccc(C=CC(=O)NC/C=C\c2ccc(Cl)c(COc3cccc4ccc(C)nc34)c2Cl)cc1OC [50-(1) (hydrochloride), 8-[2,6-Dichloro-3-[(Z)-3-[3-methoxy-4-(methylcarbamoyl)cinnamoylamino]-1-propenyl]benzyloxy]-2-methylquinoline] — 2.2-fold higher, 7.4 nM
- CNC(=O)c1ccc(/C=C/C(=O)NCc2cccn2-c2ccc(Cl)c(COc3cccc4c(-n5ccnc5)cc(C)nc34)c2Cl)cc1 [33 (dihydrochloride)] — within 1.5-fold, 3.2 nM
